This note sets out measurements from US20220355283A1, “DRUG, DRUG MANUFACTURING METHOD, AND WATER PURIFICATION METHOD” (priority 2019, published 2022).

Read-outs that look alike come from different tables or passages of the source. Bounds are passed on as bounds.

This test is described as follows: Lewis acidity measurement method (1): rate constant for the reaction between CoTPP and oxygen in the presence of a Lewis acid. It counts as physicochemical.
The mark [1] stands for this setting: rate constant for reaction between CoTPP and oxygen in presence of the Lewis acid, MeCN, room temperature.

For the compound benzethonium chloride, the “kcat, M^−2 s^−1” value under setting [1] came out at 0.24 M^−2 s^−1. Still for that read-out and setting: to benzalkonium chloride belongs 0.18 M^−2 s^−1.

`CCCC[N+](CCCC)(CCCC)CCCC.F[P-](F)(F)(F)(F)F` [tetrabutylammonium hexafluorophosphate]: the “kcat, M^−2 s^−1” value is listed as above 0.1 M^−2 s^−1.
